Here are results for 1 compound from US11826432B2, “Linkers, conjugates and applications thereof” (priority 2021, dated 2023).

In test [1] the test system is HER2 high-expressing cancer cells SK-BR-3. The experiment in a line: Cytotoxicity assay (CellTiter-Glo cell viability), SK-BR-3. The test is classed as cell-based. The settings on record: SK-BR-3, 120 h treatment. The protocol: (§1) Cytotoxicity assays were performed using HER2 high-expressing cancer cells SK-BR-3 (FIG. 1) and NCI-N87 (FIG. 2), HER2 low-expressing cancer cells CFPAC-1 (FIG. 3) and NCI-H2110 (FIG. 4), as well as a HER2 negative cell line MDA-MB-468 (FIG. 5) to analyze the effect of conjugates on tumor cell proliferation. […] In brief, 3000 to 5000 cells were plated in 96-well plates, and cells were able to attach overnight. Cells were treated with indicated drugs with various concentrations for 120 h. Cell viabilities were examined by CellTiter-Glo® Luminescent Cell Viability Assay, and percentage of cell viability was calculated.
(In general: Cellular ATP, detected with luciferase, serves as a proxy for viable cell number.)

Test [2] has as its system HER2 high-expressing cancer cells NCI-N87. The experiment in a line: Cytotoxicity assay (CellTiter-Glo cell viability), NCI-N87. Type of test: cell-based. As to conditions: NCI-N87, 120 h treatment. The protocol:
as §1

By IC50 is commonly meant the concentration that inhibits the measured activity by half. As for `CC[C@@]1(O)C(=O)OCc2c1cc1n(c2=O)Cc2c-1nc1cc(F)c(C)c3c1c2[C@@H](NC(=O)CO)CC3` [compound 10], the IC50 in test [1] worked out at 1.47 nM; in test [2], 4.68 nM.
